Data: ChEMBL document CHEMBL5465560, “Selectivity Literature for EUbOPEN Chemogenomic Library” (2024)

Tests used:
[1] = target: T1, Myosin light chain kinase (Homo sapiens) (UniProt Q32MK0); assay: Selectivity interaction (KinomeScan (DiscoverX)) EUB0001079a MYLK3; conditions: at 1 µM
T1 sequence (whole entry): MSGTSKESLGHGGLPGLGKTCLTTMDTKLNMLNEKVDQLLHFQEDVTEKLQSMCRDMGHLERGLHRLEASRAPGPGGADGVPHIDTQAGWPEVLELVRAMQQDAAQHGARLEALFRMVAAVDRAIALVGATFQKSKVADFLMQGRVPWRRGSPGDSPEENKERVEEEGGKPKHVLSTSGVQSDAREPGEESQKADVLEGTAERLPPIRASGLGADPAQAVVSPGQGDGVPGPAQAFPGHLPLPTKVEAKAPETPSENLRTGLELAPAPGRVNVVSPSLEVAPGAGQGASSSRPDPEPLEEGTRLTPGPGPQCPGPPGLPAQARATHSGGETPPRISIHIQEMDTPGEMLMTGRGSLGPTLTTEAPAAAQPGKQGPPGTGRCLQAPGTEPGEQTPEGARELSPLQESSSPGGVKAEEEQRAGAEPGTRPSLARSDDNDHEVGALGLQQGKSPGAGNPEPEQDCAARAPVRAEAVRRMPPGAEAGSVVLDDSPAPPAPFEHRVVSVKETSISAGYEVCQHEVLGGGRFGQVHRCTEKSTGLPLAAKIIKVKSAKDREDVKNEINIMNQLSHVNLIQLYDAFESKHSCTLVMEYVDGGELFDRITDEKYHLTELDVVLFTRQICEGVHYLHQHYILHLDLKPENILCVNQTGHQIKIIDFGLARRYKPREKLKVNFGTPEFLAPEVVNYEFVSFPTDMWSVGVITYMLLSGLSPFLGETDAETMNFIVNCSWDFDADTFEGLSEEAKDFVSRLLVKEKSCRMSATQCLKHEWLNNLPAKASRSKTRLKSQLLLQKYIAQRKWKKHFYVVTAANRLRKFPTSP

[2] = target: T2, Phosphatidylinositol 4,5-bisphosphate 3-kinase catalytic subunit delta isoform (Homo sapiens) (UniProt O00329); assay: Selectivity interaction (KinomeScan (DiscoverX)) EUB0001079a PIK3CD; conditions: at 1 µM
T2 sequence (whole entry): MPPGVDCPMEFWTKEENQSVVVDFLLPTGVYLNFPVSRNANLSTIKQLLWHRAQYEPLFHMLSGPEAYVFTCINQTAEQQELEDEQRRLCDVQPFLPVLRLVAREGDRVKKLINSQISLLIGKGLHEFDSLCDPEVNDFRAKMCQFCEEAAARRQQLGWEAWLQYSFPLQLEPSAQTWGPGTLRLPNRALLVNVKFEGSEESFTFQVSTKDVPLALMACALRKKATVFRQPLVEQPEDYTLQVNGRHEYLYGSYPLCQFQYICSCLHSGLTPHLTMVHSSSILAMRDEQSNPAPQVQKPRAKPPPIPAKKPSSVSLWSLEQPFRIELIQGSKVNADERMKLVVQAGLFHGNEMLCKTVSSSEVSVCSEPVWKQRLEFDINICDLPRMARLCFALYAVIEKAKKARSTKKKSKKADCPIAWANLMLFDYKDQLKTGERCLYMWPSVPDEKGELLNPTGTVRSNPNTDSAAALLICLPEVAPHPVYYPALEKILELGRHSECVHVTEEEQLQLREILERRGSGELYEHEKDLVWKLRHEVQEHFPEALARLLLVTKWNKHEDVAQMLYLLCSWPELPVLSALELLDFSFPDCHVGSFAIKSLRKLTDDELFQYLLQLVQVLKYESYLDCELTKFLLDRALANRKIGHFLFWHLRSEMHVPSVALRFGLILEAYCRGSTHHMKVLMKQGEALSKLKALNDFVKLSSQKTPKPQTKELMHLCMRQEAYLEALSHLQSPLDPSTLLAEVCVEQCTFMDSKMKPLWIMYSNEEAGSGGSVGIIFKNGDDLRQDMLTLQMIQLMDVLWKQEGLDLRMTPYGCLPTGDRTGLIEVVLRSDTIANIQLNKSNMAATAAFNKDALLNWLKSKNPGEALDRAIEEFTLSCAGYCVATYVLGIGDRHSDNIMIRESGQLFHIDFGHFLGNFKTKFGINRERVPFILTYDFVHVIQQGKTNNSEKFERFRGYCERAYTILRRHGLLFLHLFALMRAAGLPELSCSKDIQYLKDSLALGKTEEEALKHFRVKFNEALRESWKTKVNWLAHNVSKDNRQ

[3] = target: Mitogen-activated protein kinase 1 (Homo sapiens, UniProt P28482); assay: Selectivity interaction (ActivX KiNativ screen (kinase selectivity in THP-1 cell lysates)) EUB0000639a MAPK1; assay type: subcellular; conditions: lysate, at 5 µM
[4] = target: Cyclin-dependent kinase 2 (Homo sapiens, UniProt P24941); assay: Selectivity interaction (Kinase panel (enzymatic assay)) EUB0000595a CDK2
[5] = target: Serine/threonine-protein kinase VRK2 (Homo sapiens) (UniProt Q86Y07); assay: Selectivity interaction (KinomeScan (DiscoverX)) EUB0000595a VRK2; conditions: at 10 µM
[6] = target: Ribosomal protein S6 kinase alpha-6 (Homo sapiens, UniProt Q9UK32); assay: Selectivity interaction (Ambit KINOMEscan and KiNATiv profiling in Jurkat cells) EUB0000090b RPS6KA6; assay type: cell-based; conditions: at 1 µM
[7] = target: Cannabinoid receptor 2 (Homo sapiens) (UniProt P34972); assay: Selectivity interaction (Panel of kinases, GPCRs, ion channels and transporters (enzymatic assay)) EUB0000266bCl CNR2
[8] = target: T3, Membrane-associated tyrosine- and threonine-specific cdc2-inhibitory kinase (Homo sapiens) (UniProt Q99640); assay: Selectivity interaction (LanthaScreen Eu Kinase Binding Assay) EUB0001632a PKMYT1; conditions: at 10 µM
T3 sequence (whole entry): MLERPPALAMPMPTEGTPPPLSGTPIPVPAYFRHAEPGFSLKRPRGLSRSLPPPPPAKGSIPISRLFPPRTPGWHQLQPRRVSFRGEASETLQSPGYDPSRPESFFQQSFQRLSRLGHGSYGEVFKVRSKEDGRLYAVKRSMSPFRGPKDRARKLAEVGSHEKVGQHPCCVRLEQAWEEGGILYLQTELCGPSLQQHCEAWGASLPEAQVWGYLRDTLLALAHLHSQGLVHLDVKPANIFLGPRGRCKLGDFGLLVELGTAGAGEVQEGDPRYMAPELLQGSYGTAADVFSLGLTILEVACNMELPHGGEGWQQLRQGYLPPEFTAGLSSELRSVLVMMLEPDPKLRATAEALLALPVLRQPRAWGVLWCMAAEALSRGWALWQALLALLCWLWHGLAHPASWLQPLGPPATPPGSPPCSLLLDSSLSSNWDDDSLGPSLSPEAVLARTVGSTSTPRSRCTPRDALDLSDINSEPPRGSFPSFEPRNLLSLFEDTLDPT

Sequence of Serine/threonine-protein kinase VRK2 (Homo sapiens) (Q86Y07 whole entry): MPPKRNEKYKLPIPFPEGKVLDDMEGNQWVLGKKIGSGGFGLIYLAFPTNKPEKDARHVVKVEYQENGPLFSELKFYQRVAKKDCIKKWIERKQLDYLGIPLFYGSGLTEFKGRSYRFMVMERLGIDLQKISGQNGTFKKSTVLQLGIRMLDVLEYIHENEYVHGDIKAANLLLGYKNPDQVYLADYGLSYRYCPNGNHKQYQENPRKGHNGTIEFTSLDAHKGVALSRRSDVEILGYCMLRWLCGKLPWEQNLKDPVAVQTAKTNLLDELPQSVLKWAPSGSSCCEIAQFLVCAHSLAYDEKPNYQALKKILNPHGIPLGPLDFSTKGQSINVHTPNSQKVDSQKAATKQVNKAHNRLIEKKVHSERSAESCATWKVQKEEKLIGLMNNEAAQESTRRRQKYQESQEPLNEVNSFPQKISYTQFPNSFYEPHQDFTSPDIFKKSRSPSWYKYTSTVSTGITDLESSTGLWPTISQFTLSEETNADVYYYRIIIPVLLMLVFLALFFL
Sequence of Mitogen-activated protein kinase 1 (P28482 whole entry): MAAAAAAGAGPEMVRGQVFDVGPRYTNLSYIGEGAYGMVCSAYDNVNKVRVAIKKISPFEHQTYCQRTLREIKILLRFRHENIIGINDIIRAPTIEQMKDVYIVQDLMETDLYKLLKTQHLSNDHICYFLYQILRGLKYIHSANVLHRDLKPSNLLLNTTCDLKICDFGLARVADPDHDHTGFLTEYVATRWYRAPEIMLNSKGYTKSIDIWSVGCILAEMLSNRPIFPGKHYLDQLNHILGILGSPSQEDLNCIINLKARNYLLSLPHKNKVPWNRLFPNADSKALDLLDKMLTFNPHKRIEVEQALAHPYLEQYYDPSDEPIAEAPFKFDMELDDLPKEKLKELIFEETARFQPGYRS
Sequence of Ribosomal protein S6 kinase alpha-6 (Q9UK32 whole entry): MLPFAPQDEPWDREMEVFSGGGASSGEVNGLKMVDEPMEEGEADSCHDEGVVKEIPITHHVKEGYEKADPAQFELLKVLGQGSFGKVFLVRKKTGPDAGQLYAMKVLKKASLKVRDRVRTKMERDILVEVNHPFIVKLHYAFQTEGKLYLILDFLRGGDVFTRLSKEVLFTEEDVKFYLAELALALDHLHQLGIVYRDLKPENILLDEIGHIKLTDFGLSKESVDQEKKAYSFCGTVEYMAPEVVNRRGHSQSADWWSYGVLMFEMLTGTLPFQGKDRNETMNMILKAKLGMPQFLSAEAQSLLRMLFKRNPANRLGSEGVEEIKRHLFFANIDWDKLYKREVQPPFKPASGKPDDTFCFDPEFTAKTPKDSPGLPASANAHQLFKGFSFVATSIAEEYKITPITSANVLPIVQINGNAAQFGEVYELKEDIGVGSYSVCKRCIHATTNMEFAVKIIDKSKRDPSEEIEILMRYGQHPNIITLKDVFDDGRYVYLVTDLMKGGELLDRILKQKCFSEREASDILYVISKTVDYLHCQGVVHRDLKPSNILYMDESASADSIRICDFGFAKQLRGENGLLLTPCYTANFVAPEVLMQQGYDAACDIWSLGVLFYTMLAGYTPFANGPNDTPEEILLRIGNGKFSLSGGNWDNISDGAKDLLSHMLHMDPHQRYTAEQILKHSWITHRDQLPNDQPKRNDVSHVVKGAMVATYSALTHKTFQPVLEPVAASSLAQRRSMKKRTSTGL
Sequence of Cannabinoid receptor 2 (Homo sapiens) (P34972 whole entry): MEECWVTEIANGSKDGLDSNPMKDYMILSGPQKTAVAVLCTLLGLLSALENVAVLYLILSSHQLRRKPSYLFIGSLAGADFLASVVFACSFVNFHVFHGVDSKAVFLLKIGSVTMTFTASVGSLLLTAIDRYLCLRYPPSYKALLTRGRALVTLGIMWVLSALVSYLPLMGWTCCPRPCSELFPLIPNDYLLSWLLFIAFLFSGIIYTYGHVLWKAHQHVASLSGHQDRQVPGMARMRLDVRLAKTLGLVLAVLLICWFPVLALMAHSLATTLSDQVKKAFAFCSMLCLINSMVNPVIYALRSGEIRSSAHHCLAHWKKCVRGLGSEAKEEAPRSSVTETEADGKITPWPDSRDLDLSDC

Nc1cnc(N2CCc3cc(S(=O)(=O)Nc4c(F)cc(Cl)cc4F)cc(N4CCCC4=O)c32)nc1 [TP-020n]
% of control [1]: 100% | % of control [2]: 88%

CC[C@@H]1[C@H](F)C(=O)N[C@@H]1COc1nccc2cc(C(N)=O)c(OC)cc12 [ZIMLOVISERTIB]
% of inhibition [3]: 25.2%

COCC(=O)NC/C=C/c1ccc2ncnc(Nc3ccc(Oc4ccc(C)nc4)c(C)c3)c2c1 [CP-724714]
IC50 [4]: > 10 µM | % of control [5]: 100%

CN(C)C/C=C/C(=O)Nc1ccc(C(=O)N2CCCC(Nc3ncc(Cl)c(-c4c[nH]c5ccccc45)n3)C2)cc1 (stereo not drawn)
% of control [6]: 14%

CCn1c(-c2nc3cc(C(=O)N4CCCC(N)C4)ccc3n2C)cc2ccccc21 (stereo not drawn)
pXC50 [7]: < 4 M

Cn1cc(-n2cnc3c(NCc4nc5cc(Cl)c(Cl)cc5[nH]4)nc(N4CCOCC4)nc32)cn1
% of inhibition [8]: -3.65%
